Measurements taken from patent US20250059180A1 (DONG WHA PHARM. CO., LTD., priority 2022, published 2025).
Where two headings read alike, the source gives them in different places.

System: Pfeiffer cells, lymphoma cells having EZH2 mutation (A677G)
Assay: Proliferation inhibition of cells of hematologic malignancies (CCK-8, 11 days)
Assay type: cell-based
Details: 11 days culture, read-out: Cell proliferation inhibitory effect (IC50)
In short: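 Pfeiffer lymphoma cells (EZH2 A677G) in RPMI1640 with 10% FBS were seeded at 10,000 cells/well and exposed to test material for 11 days, with compound replaced every 3–4 days. Viability was read by CCK-8 absorbance at 450 nm, and IC50 was derived by non-linear regression curve fitting.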

Row | IC50 (Homo sapiens, Pfeiffer, 264 h) | IC50 | SMILES
1 | ≤ 10 nM | – | COCCN(C)[C@H]1CC[C@H](C2(C)Oc3c(-c4cnc(N5C[C@@H](C)O[C@@H](C)C5)nc4)cc(C(=O)NCc4c(SC)cc(C)[nH]c4=O)c(C)c3O2)CC1 (stereo partly drawn) [Compound 25, 7-(2-((2S,6R)-2,6-dimethylmorpholino)pyrimidin-5-yl)-2-(trans-4-((2-methoxyethyl)(methyl)amino)cyclohexyl)-2,4-dimethyl-N-((6-methyl-4-(methylthio)-2-oxo-1,2-dihydropyridin-3-yl)methyl)benzo[d][1,3]dioxole-5-carboxamide]
2 | 10 to 100 nM | – | CSc1cc(C)[nH]c(=O)c1CNC(=O)c1cc(-c2ccc(N3CC(C)CC(C)C3)nc2)c2c(c1C)OC(C)(C1CCN(CC(F)(F)F)CC1)O2 (stereo not drawn) [Compound 37, 7-(6-(3,5-dimethylpiperidin-1-yl)pyridin-3-yl)-2,4-dimethyl-N-((6-methyl-4-(methylthio)-2-oxo-1,2-dihydropyridin-3-yl)methyl)-2-(1-(2,2,2-trifluoroethyl)piperidin-4-yl)benzo[d][1,3]dioxole-5-carboxamide]
3 | ≤ 10 nM | – | CSc1cc(C)[nH]c(=O)c1CNC(=O)c1cc(-c2cnc(N3CCCCC3)nc2)c2c(c1C)OC(C)([C@H]1CC[C@H](N(C)CC(F)(F)F)CC1)O2 (stereo partly drawn) [Compound 21, 2,4-dimethyl-2-(trans-4-(methyl(2,2,2-trifluoroethyl)amino)cyclohexyl)-N-((6-methyl-4-(methylthio)-2-oxo-1,2-dihydropyridin-3-yl)methyl)-7-(2-(piperidin-1-yl)pyrimidin-5-yl)benzo[d][1,3]dioxole-5-carboxamide]
4 | ≤ 10 nM | – | CSc1cc(C)[nH]c(=O)c1CNC(=O)c1cc(-c2cnc(N3CCCC3)nc2)c2c(c1C)OC(C)([C@H]1CC[C@H](N(C)C)CC1)O2 (stereo partly drawn) [Compound 5, 2-(trans-4-(dimethylamino)cyclohexyl)-2,4-dimethyl-N-((6-methyl-4-(methylthio)-2-oxo-1,2-dihydropyridin-3-yl)methyl)-7-(2-(pyrrolidin-1-yl)pyrimidin-5-yl)benzo[d][1,3]dioxole-5-carboxamide]
5 | ≤ 10 nM | – | CSc1cc(C)[nH]c(=O)c1CNC(=O)c1cc(-c2ccc(N3C[C@@H](C)O[C@@H](C)C3)nc2)c2c(c1C)OC(C)([C@H]1CC[C@H](N(C)CC(F)F)CC1)O2 (stereo partly drawn) [Compound 109]
6 | – | ≤ 10 nM | CCN1CCC(C2(C)Oc3c(-c4ccc(N5C[C@@H](C)O[C@@H](C)C5)nc4)cc(C(=O)NCc4c(SC)cc(C)[nH]c4=O)c(C)c3O2)CC1 (single isomer, unassigned) [Compound 49]
7 | ≤ 10 nM | – | CSc1cc(C)[nH]c(=O)c1CNC(=O)c1cc(-c2ccc(CN3CCOCC3)cc2)c2c(c1C)OC(C)([C@H]1CC[C@H](N(C)C)CC1)O2 (stereo partly drawn) [Compound 6, 2-(trans-4-(dimethylamino)cyclohexyl)-2,4-dimethyl-N-((6-methyl-4-(methylthio)-2-oxo-1,2-dihydropyridin-3-yl)methyl)-7-(4-(morpholinomethyl)phenyl)benzo[d][1,3]dioxole-5-carboxamide]
8 | ≤ 10 nM | – | CSc1cc(C)[nH]c(=O)c1CNC(=O)c1cc(-c2ccc3c(ccn3C)c2)c2c(c1C)OC(C)([C@H]1CC[C@H](N(C)C)CC1)O2 (stereo partly drawn) [Compound 7, 2-(trans-4-(dimethylamino)cyclohexyl)-2,4-dimethyl-7-(1-methyl-1H-indol-5-yl)-N-((6-methyl-4-(methylthio)-2-oxo-1,2-dihydropyridin-3-yl)methyl)benzo[d][1,3]dioxole-5-carboxamide]
9 | ≥ 100 nM | – | CCCCN(C)c1ccc(-c2cc(C(=O)NCc3c(SC)cc(C)[nH]c3=O)c(C)c3c2OC(C)(C2CCN(CC(F)(F)F)CC2)O3)cn1 (stereo not drawn) [Compound 98, 7-(6-(butyl(methyl)amino)pyridin-3-yl)-2,4-dimethyl-N-((6-methyl-4-(methylthio)-2-oxo-1,2-dihydropyridin-3-yl)methyl)-2-(1-(2,2,2-trifluoroethyl)piperidin-4-yl)benzo[d][1,3]dioxole-5-carboxamide]
10 | 10 to 100 nM | – | CSc1cc(C)[nH]c(=O)c1CNC(=O)c1cc(-c2ccc(N3C[C@@H](C)O[C@@H](C)C3)nc2)c2c(c1C)OC(C)([C@H]1CC[C@H](N(C)C(=O)C(F)(F)F)CC1)O2 (stereo partly drawn) [Compound 115, 7-(6-((2S,6R)-2,6-dimethylmorpholino)pyridin-3-yl)-2,4-dimethyl-N-((6-methyl-4-(methylthio)-2-oxo-1,2-dihydropyridin-3-yl)methyl)-2-(trans-4-(2,2,2-trifluoro-N-methylacetamido)cyclohexyl)benzo[d][1,3]dioxole-5-carboxamide]
11 | – | ≤ 10 nM | CCN1CCC(C2(C)Oc3c(-c4cnc(N(C)CC)nc4)cc(C(=O)NCc4c(SC)cc(C)[nH]c4=O)c(C)c3O2)CC1 (single isomer, unassigned) [Compound 83, 7-(2-(ethyl(methyl)amino)pyrimidin-5-yl)-2-(1-ethylpiperidin-4-yl)-2,4-dimethyl-N-((6-methyl-4-(methylthio)-2-oxo-1,2-dihydropyridin-3-yl)methyl)benzo[d][1,3]dioxole-5-carboxamide]
12 | ≥ 100 nM | – | CCCCN(C)c1ncc(-c2cc(C(=O)NCc3c(SC)cc(C)[nH]c3=O)c(C)c3c2OC(C)(C2CCN(CC(F)(F)F)CC2)O3)cn1 (stereo not drawn) [Compound 99]
13 | – | ≤ 10 nM | CSc1cc(C)[nH]c(=O)c1CNC(=O)c1cc(-c2ccc(N3C[C@@H](C)O[C@@H](C)C3)nc2)c2c(c1C)OC(C)(C1CCN(C(C)C)CC1)O2 (single isomer, unassigned) [Compound 51]
14 | ≤ 10 nM | – | CCN(C)c1ncc(-c2cc(C(=O)NCc3c(SC)cc(C)[nH]c3=O)c(C)c3c2OC(C)(C2CCN(CC(F)(F)F)CC2)O3)cn1 (stereo not drawn) [Compound 78]
15 | ≤ 10 nM | – | COC(CN1CCC(C2(C)Oc3c(-c4ccc(N5C[C@@H](C)O[C@@H](C)C5)nc4)cc(C(=O)NCc4c(SC)cc(C)[nH]c4=O)c(C)c3O2)CC1)OC (stereo partly drawn) [Compound 41, 2-(1-(2,2-dimethoxyethyl)piperidin-4-yl)-7-(6-((2S,6R)-2,6-dimethylmorpholino)pyridin-3-yl)-2,4-dimethyl-N-((6-methyl-4-(methylthio)-2-oxo-1,2-dihydropyridin-3-yl)methyl)benzo[d][1,3]dioxole-5-carboxamide]
16 | ≤ 10 nM | – | COCCN(C)[C@H]1CC[C@H](C2(C)Oc3c(-c4ccc(N5CCC(F)(F)CC5)nc4)cc(C(=O)NCc4c(SC)cc(C)[nH]c4=O)c(C)c3O2)CC1 (stereo partly drawn) [Compound 27, 7-(6-(4,4-difluoropiperidin-1-yl)pyridin-3-yl)-2-(trans-4-((2-methoxyethyl)(methyl)amino)cyclohexyl)-2,4-dimethyl-N-((6-methyl-4-(methylthio)-2-oxo-1,2-dihydropyridin-3-yl)methyl)benzo[d][1,3]dioxole-5-carboxamide]
17 | 10 to 100 nM | – | CSc1cc(C)[nH]c(=O)c1CNC(=O)c1cc(-c2cnc(N3CCSCC3)nc2)c2c(c1C)OC(C)(C1CCN(CC(F)(F)F)CC1)O2 (stereo not drawn) [Compound 92, 2,4-dimethyl-N-((6-methyl-4-(methylthio)-2-oxo-1,2-dihydropyridin-3-yl)methyl)-7-(2-thiomorpholinopyrimidin-5-yl)-2-(1-(2,2,2-trifluoroethyl)piperidin-4-yl)benzo[d][1,3]dioxole-5-carboxamide]
18 | ≤ 10 nM | – | CSc1cc(C)[nH]c(=O)c1CNC(=O)c1cc(-c2ccc(N3C[C@@H](C)O[C@@H](C)C3)nc2)c2c(c1C)OC(C)([C@H]1CC[C@H](N(C)CC3OCCO3)CC1)O2 (stereo partly drawn) [Compound 32, 2-(trans-4-(((1,3-dioxolan-2-yl)methyl)(methyl)amino)cyclohexyl)-7-(6-((2S,6R)-2,6-dimethylmorpholino)pyridin-3-yl)-2,4-dimethyl-N-((6-methyl-4-(methylthio)-2-oxo-1,2-dihydropyridin-3-yl)methyl)benzo[d][1,3]dioxole-5-carboxamide]
19 | – | ≤ 10 nM | CSc1cc(C)[nH]c(=O)c1CNC(=O)c1cc(-c2ccc(N3C[C@@H](C)O[C@@H](C)C3)nc2)c2c(c1C)OC(C)([C@H]1CC[C@H](N(C)CC(F)(F)F)CC1)O2 (single isomer, unassigned) [Compound 107]
20 | – | ≥ 100 nM | CSc1cc(C)[nH]c(=O)c1CNC(=O)c1cc(-c2ccc(N3C[C@@H](C)O[C@@H](C)C3)nc2)c2c(c1C)OC(C)(C1CCN(CCCC(F)(F)F)CC1)O2 (single isomer, unassigned) [Compound 58]
21 | – | ≤ 10 nM | CSc1cc(C)[nH]c(=O)c1CNC(=O)c1cc(-c2ccc(N3C[C@@H](C)O[C@@H](C)C3)nc2)c2c(c1C)OC(C)(C1CCN(CCCC(F)(F)F)CC1)O2 (single isomer, unassigned) [Compound 57]
22 | ≤ 10 nM | – | CSc1cc(C)[nH]c(=O)c1CNC(=O)c1cc(-c2ccc(N3C[C@@H](C)O[C@@H](C)C3)nc2)c2c(c1C)OC(C)([C@H]1CC[C@H](N(C)C3CCCCC3)CC1)O2 (stereo partly drawn) [Compound 114, 2-(trans-4-(cyclohexyl(methyl)amino)cyclohexyl)-7-(6-((2S,6R)-2,6-dimethylmorpholino)pyridin-3-yl)-2,4-dimethyl-N-((6-methyl-4-(methylthio)-2-oxo-1,2-dihydropyridin-3-yl)methyl)benzo[d][1,3]dioxole-5-carboxamide]
23 | ≤ 10 nM | – | CCN(C)[C@H]1CC[C@H](C2(C)Oc3c(-c4ccc(N5C[C@@H](C)O[C@@H](C)C5)nc4)cc(C(=O)NCc4c(SC)cc(C)[nH]c4=O)c(C)c3O2)CC1 (stereo partly drawn) [Compound 111, 7-(6-((2S,6R)-2,6-dimethylmorpholino)pyridin-3-yl)-2-(trans-4-(ethyl(methyl)amino)cyclohexyl)-2,4-dimethyl-N-((6-methyl-4-(methylthio)-2-oxo-1,2-dihydropyridin-3-yl)methyl)benzo[d][1,3]dioxole-5-carboxamide]
24 | – | ≥ 100 nM | CSc1cc(C)[nH]c(=O)c1CNC(=O)c1cc(-c2ccc(N3C[C@@H](C)O[C@@H](C)C3)nc2)c2c(c1C)OC(C)(C1CCN(CC(F)(F)F)CC1)O2 (single isomer, unassigned) [Compound 45]
